Measurements: patent US11911467B2, “Composition comprising PIC for treatment of cancer” (Yisheng Biopharma (Singapore) PTE LTD, priority 2016, dated 2024)
“And” between values parts separate entries of the source, which are not always exact repeats. Equal entries are not always repeated.

Tests used:
[1] = tested on: B16F10 metastasis tumor
[2] = tested on: LL/2 murine Lewis lung tumor
[3] = tested on: 4T1 murine breast tumor; test: 4T1 murine breast tumor model (Example 3); format: in vivo, female Balb/c mice
Method: 1.1 Female Balb/c mice (6 weeks old, body weight 17.2±0.1 g) were obtained from Shanghai SIPPR-BK Laboratory Animal Co. Ltd.
The murine breast cancer cancer cell line 4T1 was obtained from American Type Culture Collection (ATCC), and maintained by HD Biosciences. Cells were maintained in DMEM with 10% fetal bovine serum in a atmosphere of 5% CO2 at 37° C. Passaging ratio was between 1:5 and 1:8, at the frequency of 3 to 4 times per week.
4T1 murine breast tumor model was established in female Balb/c mice by subcutaneous inoculation with 1×10^6 cells per animal. The rate of tumor formation was 100%. Three days post cell inoculation, the cell inoculated mice were randomly sorted into treatment groups by weight. Animals in each group were administered according to Table 2.
There were 4 groups: Vehicle group, Docetaxel group, YS-ON-001 low dose group, and YS-ON-001 high dose group.
2. The Studies were Terminated when the Average Tumor Volume in Vehicle Group Reached 2500 mm^3
3. At the end of study, the tumor mass was removed and photographed. The tumor weight was recorded. The thymus and spleen was removed and weighed. And then, the organ index was calculated.
III. Observational Indices: Same as in Example 2 Section III.
Data were reported as Mean±SEM. Comparison between groups was analysed using ANOVA.

[4] = tested on: Ehrlich Ascites Cancer (EAC) tumor; parameters: species or system female Kunming mice; conditions: mouse, in vivo
[5] = tested on: S180 tumor; parameters: species or system female Balb/c mice; conditions: mouse, in vivo
[6] = Cisplatin 5 mg/kg i.v. QW, total 3 dosing, end of study
[7] = Docetaxel 10 mg/kg i.v. QW, total 3 dosing, end of study

With `N.N.[Cl][Pt][Cl]` [Cisplatin] the “Number of lung metastases compared with vehicle group” value ([1]; day 15, Cisplatin 5 mg/kg i.v. Q4D, YS-ON-001 200 μg/0.2 mL/mice/dose i.m./s.c. BID, p<0.01) was “significantly decreased”, the “Spleen weight and spleen index compared with vehicle group” value ([1]; mouse, in vivo) was “not affected” and the “Thymus weight and thymus index compared with vehicle group” value ([1]; mouse, in vivo) was “significantly decreased”. For the same molecule, the “Relative tumor proliferation rate T/C” value [2, 6] was 53.04%, the “Tumor inhibition rate (tumor weight)” value [2, 6] was 29.46% and the “Spleen index compared to vehicle group” value ([2]; mouse, in vivo) was “trend of reducing which is not significant”. The “Spleen weight compared to vehicle group” value ([2]; mouse, in vivo) was “significantly reduced” and the “Thymus weight and thymus index compared to vehicle group” value ([2]; mouse, in vivo) was “significantly reduced”.

`CC(=O)O[C@@]12CO[C@@H]1C[C@H](O)[C@@]1(C)C(=O)[C@H](O)C3=C(C)[C@@H](OC(=O)[C@H](O)[C@@H](NC(=O)OC(C)(C)C)c4ccccc4)C[C@@](O)([C@@H](OC(=O)c4ccccc4)[C@H]21)C3(C)C` [Docetaxel] was tested, and the “Relative tumor proliferation rate T/C” value [3, 7] was 50.12%, the “Tumor inhibition rate (tumor weight)” value [3, 7] was 35.55% and the “Body weight compared to vehicle group” value ([3]; Docetaxel 10 mg/kg, Day 8 and Day 13 to end of study, p<0.01) was “significantly affected”. For the same molecule, the “Body weight change compared to vehicle group” value ([3]; Docetaxel: Day 4 to end, two YS-ON-001 groups: Day 4 and Day 15 to end) was “significantly reduced”, the “Spleen weight compared to vehicle group” value ([3]; end of study, doses of Table 2) was “significantly reduced” and the “Thymus weight and thymus index compared to vehicle group” value ([3]; end of study, doses of Table 2) was “significantly reduced”. For the same molecule, the “Spleen index compared to vehicle group” value ([3]; end of study, doses of Table 2, YS-ON-001 p<0.01 low dose, p<0.05 high dose) was “significantly reduced”.

With `O=P1(N(CCCl)CCCl)NCCCO1` (centres unmarked) [CTX, Cyclophosphamide] the “Day on which all mice were dead” value [4] was 30 days, the “Day on which death was first observed” value [4] was 27 days and the “Median duration (to death)” value [4] was 29 days and 34.5 days. The “Tumor growth (tumor volume) compared with saline control group” value [5] was “significantly inhibited the tumor growth” and the “Tumor weight compared with saline control group” value [5] was “significantly decreased tumor weight”.
